Measured values reported in patent US9187472B2 (AbbVie Inc., priority 2012, dated 2015).

How the values were obtained:
NAMPT = NAMPT (Homo sapiens, UniProt P43490); assay: TR-FRET Binding Assay of NAMPT with PRPP; conditions: with 200 μM PRPP and 2.5 mM ATP; 2 nM NAMPT, 2 nM probe, 16 hours equilibration
Procedure, shortened: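 Read-out is TR-FRET after a 16 h equilibration allowing possible compound modification by the enzyme. Final mix: 2 nM NAMPT, 2 nM probe, 1 nM Tb-anti-His antibody, 200 μM PRPP, 2.5 mM ATP, 2% DMSO.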

PC3 cells = assay: NAMPT Cell Proliferation Assay; format: cell-based; conditions: Homo sapiens, PC-3, 120 h, 5 days incubation, cell viability by Cell Titer Glo
Procedure, shortened: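 IC50 values derive from sigmoidal dose-response fits of percent inhibition of PC3 viability, measured by luminescence after 5 days of compound treatment. Cells (500/well, RPMI containing 10% heat-inactivated FBS) are allowed to attach overnight, and compounds are tested at 10-fold dilutions between 10 μM and 1×10^−5 μM.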

[1] = molecular target: NAMPT (human, recombinant, C-terminally His-tagged) (Homo sapiens, UniProt P43490); assay: Time-Resolved Fluorescence Resonance Energy Transfer (TR-FRET) Binding Assay of NAMPT; conditions: without substrates; 6.8 nM NAMPT, 200 nM probe, 3 hours equilibration
Sequence of NAMPT (human, recombinant, C-terminally His-tagged) (P43490 whole entry): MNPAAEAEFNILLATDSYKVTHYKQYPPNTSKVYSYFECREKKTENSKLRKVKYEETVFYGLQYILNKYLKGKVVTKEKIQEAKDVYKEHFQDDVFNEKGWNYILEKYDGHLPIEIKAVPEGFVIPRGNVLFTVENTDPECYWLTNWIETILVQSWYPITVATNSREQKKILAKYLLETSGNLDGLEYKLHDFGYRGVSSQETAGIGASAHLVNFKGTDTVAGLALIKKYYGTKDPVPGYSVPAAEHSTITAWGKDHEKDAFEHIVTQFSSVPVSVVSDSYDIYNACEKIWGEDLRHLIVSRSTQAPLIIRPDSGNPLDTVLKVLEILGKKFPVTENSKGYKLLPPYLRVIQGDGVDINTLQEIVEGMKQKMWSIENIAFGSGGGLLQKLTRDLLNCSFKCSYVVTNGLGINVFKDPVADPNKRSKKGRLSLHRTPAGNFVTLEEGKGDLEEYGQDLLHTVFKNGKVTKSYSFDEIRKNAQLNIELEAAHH
Procedure, shortened: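 Competitive binding against an Oregon Green 488 tracer (200 nM), 6.8 nM His-tagged enzyme, 1 nM Tb antibody, 2% DMSO, 3 h at RT. IC50 derived from TR-FRET ratios.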

Sequence of NAMPT (P43490 whole entry): as above

Row | SMILES | IC50 (NAMPT) | IC50 (PC3 cells) | IC50 [1]
1 | COc1ccc(C(=O)N2CCC(c3ccc(C(=O)NCc4ccn5ccnc5c4)cc3)C2)cc1 (stereo not drawn) [Example 605, N-(imidazo[1,2-a]pyridin-7-ylmethyl)-4-[1-(4-methoxybenzoyl)pyrrolidin-3-yl]benzamide] | 0.000886 µM | 0.0661 µM | 0.559 µM
2 | Cn1cccc1C(=O)N1CCC(c2ccc(C(=O)NCc3ccn4ccnc4c3)cc2)C1 (stereo not drawn) [Example 606, N-(imidazo[1,2-a]pyridin-7-ylmethyl)-4-{1-[(1-methyl-1H-pyrrol-2-yl)carbonyl]pyrrolidin-3-yl}benzamide] | 0.000169 µM | 0.0348 µM | 0.281 µM
3 | O=C(NCc1ccn2ccnc2c1)c1ccc(C2CCN(C(=O)CC3CCCCC3)C2)cc1 (stereo not drawn) [Example 607, 4-[1-(cyclohexylacetyl)pyrrolidin-3-yl]-N-(imidazo[1,2-a]pyridin-7-ylmethyl)benzamide] | 0.000796 µM | 0.0744 µM | 0.478 µM
4 | O=C(NCc1ccn2ccnc2c1)c1ccc(C2CCN(C(=O)c3cccnc3)C2)cc1 (stereo not drawn) [Example 609, N-(imidazo[1,2-a]pyridin-7-ylmethyl)-4-[1-(pyridin-3-ylcarbonyl)pyrrolidin-3-yl]benzamide] | 0.00062 µM | 0.142 µM | 0.598 µM
5 | O=C(NCc1ccn2ccnc2c1)c1ccc(C2CCN(C(=O)c3ccoc3)C2)cc1 (stereo not drawn) [Example 612, 4-[1-(furan-3-ylcarbonyl)pyrrolidin-3-yl]-N-(imidazo[1,2-a]pyridin-7-ylmethyl)benzamide] | 0.000919 µM | 0.695 µM | 0.706 µM
6 | O=C(NCc1ccn2ccnc2c1)c1ccc(C2CCN(C(=O)c3nccs3)C2)cc1 (stereo not drawn) [Example 613, N-(imidazo[1,2-a]pyridin-7-ylmethyl)-4-[1-(1,3-thiazol-2-ylcarbonyl)pyrrolidin-3-yl]benzamide] | 0.000916 µM | 0.14 µM | 0.347 µM
7 | CC1(C(=O)N2CCC(c3ccc(C(=O)NCc4ccn5ccnc5c4)cc3)C2)CCCCC1 (stereo not drawn) [Example 614, N-(imidazo[1,2-a]pyridin-7-ylmethyl)-4-{1-[(1-methylcyclohexyl)carbonyl]pyrrolidin-3-yl}benzamide] | 0.00067 µM | 0.00572 µM | 0.216 µM
8 | Cc1cccc(C(=O)N2CCC(c3ccc(C(=O)NCc4ccn5ccnc5c4)cc3)C2)c1 (stereo not drawn) [Example 616, N-(imidazo[1,2-a]pyridin-7-ylmethyl)-4-[1-(3-methylbenzoyl)pyrrolidin-3-yl]benzamide] | 0.00049 µM | 0.0326 µM | 0.174 µM
9 | O=C(NCc1ccn2ccnc2c1)c1ccc(C2CCN(C(=O)c3cccc(OC(F)(F)F)c3)C2)cc1 (stereo not drawn) [Example 618, N-(imidazo[1,2-a]pyridin-7-ylmethyl)-4-{1-[3-(trifluoromethoxy)benzoyl]pyrrolidin-3-yl}benzamide] | 0.000751 µM | 0.125 µM | 0.5 µM
10 | Cc1ccsc1C(=O)N1CCC(c2ccc(C(=O)NCc3ccn4ccnc4c3)cc2)C1 (stereo not drawn) [Example 619, N-(imidazo[1,2-a]pyridin-7-ylmethyl)-4-{1-[(3-methylthiophen-2-yl)carbonyl]pyrrolidin-3-yl}benzamide] | 0.000616 µM | 0.0033 µM | 0.0793 µM
11 | CS(=O)(=O)N1CCC(c2ccc(C(=O)NCc3ccn4ccnc4c3)cc2)C1 (stereo not drawn) [Example 624, N-(imidazo[1,2-a]pyridin-7-ylmethyl)-4-[1-(methylsulfonyl)pyrrolidin-3-yl]benzamide] | 0.000627 µM | 0.329 µM | 0.261 µM
12 | CCS(=O)(=O)N1CCC(c2ccc(C(=O)NCc3ccn4ccnc4c3)cc2)C1 (stereo not drawn) [Example 625, 4-[1-(ethylsulfonyl)pyrrolidin-3-yl]-N-(imidazo[1,2-a]pyridin-7-ylmethyl)benzamide] | 0.00076 µM | 0.226 µM | 0.795 µM
13 | CC1CC1C(=O)N1CC(c2ccc(C(=O)NCc3ccn4ccnc4c3)cc2)C1 (stereo not drawn) [Example 628, N-(imidazo[1,2-a]pyridin-7-ylmethyl)-4-{1-[(2-methylcyclopropyl)carbonyl]azetidin-3-yl}benzamide] | 0.000978 µM | 0.0436 µM | 0.706 µM
14 | O=C(NCc1ccn2ccnc2c1)c1ccc(C2CN(C(=O)CC3CCCC3)C2)cc1 [Example 629, 4-[1-(cyclopentylacetyl)azetidin-3-yl]-N-(imidazo[1,2-a]pyridin-7-ylmethyl)benzamide] | 0.000643 µM | 0.0652 µM | 0.23 µM
15 | CCC(C)CC(=O)N1CC(c2ccc(C(=O)NCc3ccn4ccnc4c3)cc2)C1 (stereo not drawn) [Example 630, N-(imidazo[1,2-a]pyridin-7-ylmethyl)-4-[1-(3-methylpentanoyl)azetidin-3-yl]benzamide] | 0.000563 µM | 0.0404 µM | 0.266 µM
16 | O=C(NCc1ccn2ccnc2c1)c1ccc(C2CN(C(=O)C3CCCC3)C2)cc1 [Example 631, 4-[1-(cyclopentylcarbonyl)azetidin-3-yl]-N-(imidazo[1,2-a]pyridin-7-ylmethyl)benzamide] | 0.00126 µM | 0.0772 µM | 0.616 µM
17 | CC1(C(=O)N2CC(c3ccc(C(=O)NCc4ccn5ccnc5c4)cc3)C2)CC1 [Example 632, N-(imidazo[1,2-a]pyridin-7-ylmethyl)-4-{1-[(1-methylcyclopropyl)carbonyl]azetidin-3-yl}benzamide] | 0.000698 µM | 0.0323 µM | 0.27 µM
18 | CC(C)(C)C(=O)N1CC(c2ccc(C(=O)NCc3ccn4ccnc4c3)cc2)C1 [Example 633, 4-[1-(2,2-dimethylpropanoyl)azetidin-3-yl]-N-(imidazo[1,2-a]pyridin-7-ylmethyl)benzamide] | 0.000707 µM | 0.012 µM | 0.335 µM

The next lines start with the values.

Row | IC50 (NAMPT) | IC50 (PC3 cells) | IC50 [1] | SMILES
19 | 0.00051 µM | 0.148 µM | 0.481 µM | O=C(NCc1ccn2ccnc2c1)c1ccc(C2CCN(C(=O)c3ccncc3)C2)cc1 (stereo not drawn) [Example 608, N-(imidazo[1,2-a]pyridin-7-ylmethyl)-4-[1-(pyridin-4-ylcarbonyl)pyrrolidin-3-yl]benzamide]
20 | 0.000762 µM | 0.0744 µM | 0.751 µM | O=C(NCc1ccn2ccnc2c1)c1ccc(C2CCN(C(=O)C3CCCCC3)C2)cc1 (stereo not drawn) [Example 610, 4-[1-(cyclohexylcarbonyl)pyrrolidin-3-yl]-N-(imidazo[1,2-a]pyridin-7-ylmethyl)benzamide]
21 | 0.000621 µM | 0.0709 µM | 0.288 µM | O=C(NCc1ccn2ccnc2c1)c1ccc(C2CCN(C(=O)c3ccccn3)C2)cc1 (stereo not drawn) [Example 611, N-(imidazo[1,2-a]pyridin-7-ylmethyl)-4-[1-(pyridin-2-ylcarbonyl)pyrrolidin-3-yl]benzamide]
22 | 0.00079 µM | 0.0188 µM | 0.544 µM | CC(C)C(C)C(=O)N1CCC(c2ccc(C(=O)NCc3ccn4ccnc4c3)cc2)C1 (stereo not drawn) [Example 615, 4-[1-(2,3-dimethylbutanoyl)pyrrolidin-3-yl]-N-(imidazo[1,2-a]pyridin-7-ylmethyl)benzamide]
23 | 0.000645 µM | 0.0826 µM | 0.164 µM | O=C(NCc1ccn2ccnc2c1)c1ccc(C2CCN(C(=O)c3ccsc3)C2)cc1 (stereo not drawn) [Example 617, N-(imidazo[1,2-a]pyridin-7-ylmethyl)-4-[1-(thiophen-3-ylcarbonyl)pyrrolidin-3-yl]benzamide]
24 | 0.001 µM | 0.131 µM | 0.71 µM | O=C(NCc1ccn2ccnc2c1)c1ccc(C2CCN(C(=O)c3cccc(C(F)(F)F)c3)C2)cc1 (stereo not drawn) [Example 620, N-(imidazo[1,2-a]pyridin-7-ylmethyl)-4-{1-[3-(trifluoromethyl)benzoyl]pyrrolidin-3-yl}benzamide]
25 | 0.00542 µM | 0.0253 µM | 0.114 µM | CC(C)(O)Cn1cc(-c2ccc(C(=O)NCc3ccc4ncnn4c3)s2)cn1 [Example 621, 5-[1-(2-hydroxy-2-methylpropyl)-1H-pyrazol-4-yl]-N-([1,2,4]triazolo[1,5-a]pyridin-6-ylmethyl)thiophene-2-carboxamide]
26 | 0.00236 µM | 0.00706 µM | 0.0294 µM | CC1(Cn2cc(-c3ccc(C(=O)NCc4ccc5ncnn5c4)s3)cn2)CCOCC1 [Example 622, 5-{1-[(4-methyltetrahydro-2H-pyran-4-yl)methyl]-1H-pyrazol-4-yl}-N-([1,2,4]triazolo[1,5-a]pyridin-6-ylmethyl)thiophene-2-carboxamide]
27 | 0.0016 µM | 0.446 µM | 1.01 µM | CS(=O)(=O)N1CC(c2ccc(C(=O)NCc3ccn4ccnc4c3)cc2)C1 [Example 623, N-(imidazo[1,2-a]pyridin-7-ylmethyl)-4-[1-(methylsulfonyl)azetidin-3-yl]benzamide]
28 | 0.000793 µM | 0.0807 µM | 0.645 µM | O=C(NCc1ccn2ccnc2c1)c1ccc(C2CCN(S(=O)(=O)C3CC3)C2)cc1 (stereo not drawn) [Example 626, 4-[1-(cyclopropylsulfonyl)pyrrolidin-3-yl]-N-(imidazo[1,2-a]pyridin-7-ylmethyl)benzamide]
29 | 0.00071 µM | 0.0175 µM | 0.211 µM | O=C(NCc1ccn2ccnc2c1)c1ccc(C2CCN(S(=O)(=O)c3ccccc3)C2)cc1 (stereo not drawn) [Example 627, N-(imidazo[1,2-a]pyridin-7-ylmethyl)-4-[1-(phenylsulfonyl)pyrrolidin-3-yl]benzamide]
